Laboratory results reported in ChEMBL document CHEMBL3112424, “Discovery and optimization of pyrimidone indoline amide PI3Kβ inhibitors for the treatment of phosphatase and tensin homologue (PTEN)-deficient cancers” (J Med Chem, 2014).
≈ marks a conversion by molar mass, not a printed value.

Columns and labels:
[1] = Apparent permeability in human Caco2 cells at 5 uM after 20 mins; details: Caco-2
[2] = target: Phosphatidylinositol 4,5-bisphosphate 3-kinase catalytic subunit gamma isoform (Homo sapiens, UniProt P48736); experiment: Inhibition of C-terminal ploy-His-tagged human PI3Kgamma expressed in baculovirus-infected sf9 cells using PI(4,5)P2 as substrate after 15 mins by HTRF assay
[3] = target: Phosphatidylinositol 4,5-bisphosphate 3-kinase catalytic subunit alpha isoform (Homo sapiens, UniProt P42336); experiment: Inhibition of N-terminal ploy-His-tagged human PI3Kalpha expressed in baculovirus-infected sf9 cells using PI(4,5)P2 as substrate after 15 mins by HTRF assay
[4] = Solubility of the compound in phosphate buffer at pH 7.4 by HPLC analysis; details: phosphate buffer
[5] = target: T1, Phosphatidylinositol 4,5-bisphosphate 3-kinase catalytic subunit delta isoform (Homo sapiens, UniProt O00329); experiment: Inhibition of N-terminal ploy-His-tagged human PI3Kdelta expressed in baculovirus-infected sf9 cells using PI(4,5)P2 as substrate after 15 mins by HTRF assay
T1 sequence (O00329 whole entry): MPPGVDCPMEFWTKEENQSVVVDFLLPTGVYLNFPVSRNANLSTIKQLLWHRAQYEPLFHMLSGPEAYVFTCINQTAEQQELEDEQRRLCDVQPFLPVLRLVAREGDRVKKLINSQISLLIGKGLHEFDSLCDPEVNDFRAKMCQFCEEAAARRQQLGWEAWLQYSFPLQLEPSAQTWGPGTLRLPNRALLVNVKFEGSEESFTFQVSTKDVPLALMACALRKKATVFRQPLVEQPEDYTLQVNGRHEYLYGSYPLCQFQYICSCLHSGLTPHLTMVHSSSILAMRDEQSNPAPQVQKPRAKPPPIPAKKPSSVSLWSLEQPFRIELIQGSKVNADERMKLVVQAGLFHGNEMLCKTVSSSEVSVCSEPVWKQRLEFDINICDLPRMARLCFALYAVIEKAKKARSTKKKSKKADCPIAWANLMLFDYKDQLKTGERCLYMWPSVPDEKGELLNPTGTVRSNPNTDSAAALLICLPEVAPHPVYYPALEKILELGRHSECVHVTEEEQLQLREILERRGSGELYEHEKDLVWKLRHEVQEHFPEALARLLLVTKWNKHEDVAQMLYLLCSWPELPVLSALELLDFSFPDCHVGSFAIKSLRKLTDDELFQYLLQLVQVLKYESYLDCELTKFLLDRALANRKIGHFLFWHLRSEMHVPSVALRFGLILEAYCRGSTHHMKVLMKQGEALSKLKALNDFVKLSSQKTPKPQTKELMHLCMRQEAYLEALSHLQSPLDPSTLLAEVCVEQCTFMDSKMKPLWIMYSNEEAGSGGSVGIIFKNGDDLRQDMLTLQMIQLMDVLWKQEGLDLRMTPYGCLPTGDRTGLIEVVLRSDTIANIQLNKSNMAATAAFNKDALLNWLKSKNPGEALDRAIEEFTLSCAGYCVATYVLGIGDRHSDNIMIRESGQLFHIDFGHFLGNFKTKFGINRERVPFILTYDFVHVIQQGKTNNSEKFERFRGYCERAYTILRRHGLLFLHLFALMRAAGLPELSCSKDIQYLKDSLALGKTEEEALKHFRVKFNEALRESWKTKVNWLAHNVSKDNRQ

[6] = target: T2, Phosphatidylinositol 4,5-bisphosphate 3-kinase catalytic subunit beta isoform (Homo sapiens, UniProt P42338); experiment: Inhibition of N-terminal ploy-His-tagged human PI3Kbeta expressed in baculovirus-infected sf21 cells using PI(4,5)P2 as substrate after 15 mins by HTRF assay
[7] = Metabolic stability in mouse liver microsomes at 5 uM after 20 mins
[8] = target: T2, Phosphatidylinositol 4,5-bisphosphate 3-kinase catalytic subunit beta isoform; experiment: Inhibition of PI3Kbeta-mediated Akt phosphorylation at S473 in PTEN-deficient human PC3 cells after 0.5 to 2 hrs by Immunoblotting assay; type: cell-based, PC-3
[9] = Metabolic stability in human liver microsomes at 5 uM after 20 mins
Cytochrome P450 3A4 = Cytochrome P450 3A4 (Homo sapiens, UniProt P08684); experiment: Inhibition of recombinant human CYP3A4
Sequence of Cytochrome P450 3A4 (P08684 whole entry): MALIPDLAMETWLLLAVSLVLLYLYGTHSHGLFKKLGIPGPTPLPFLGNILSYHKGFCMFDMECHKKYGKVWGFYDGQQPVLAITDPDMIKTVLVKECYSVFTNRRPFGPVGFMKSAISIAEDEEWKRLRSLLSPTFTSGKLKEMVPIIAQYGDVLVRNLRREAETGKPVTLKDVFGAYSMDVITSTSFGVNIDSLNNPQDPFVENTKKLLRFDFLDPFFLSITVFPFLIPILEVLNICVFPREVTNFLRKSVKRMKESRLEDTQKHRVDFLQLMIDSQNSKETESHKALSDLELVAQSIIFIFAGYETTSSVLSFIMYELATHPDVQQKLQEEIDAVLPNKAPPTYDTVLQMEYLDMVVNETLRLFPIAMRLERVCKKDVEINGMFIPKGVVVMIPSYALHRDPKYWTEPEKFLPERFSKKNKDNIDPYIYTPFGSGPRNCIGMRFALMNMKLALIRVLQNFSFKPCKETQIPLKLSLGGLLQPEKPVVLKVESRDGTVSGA

Sequence of Phosphatidylinositol 4,5-bisphosphate 3-kinase catalytic subunit alpha isoform (P42336 whole entry, canonical isoform): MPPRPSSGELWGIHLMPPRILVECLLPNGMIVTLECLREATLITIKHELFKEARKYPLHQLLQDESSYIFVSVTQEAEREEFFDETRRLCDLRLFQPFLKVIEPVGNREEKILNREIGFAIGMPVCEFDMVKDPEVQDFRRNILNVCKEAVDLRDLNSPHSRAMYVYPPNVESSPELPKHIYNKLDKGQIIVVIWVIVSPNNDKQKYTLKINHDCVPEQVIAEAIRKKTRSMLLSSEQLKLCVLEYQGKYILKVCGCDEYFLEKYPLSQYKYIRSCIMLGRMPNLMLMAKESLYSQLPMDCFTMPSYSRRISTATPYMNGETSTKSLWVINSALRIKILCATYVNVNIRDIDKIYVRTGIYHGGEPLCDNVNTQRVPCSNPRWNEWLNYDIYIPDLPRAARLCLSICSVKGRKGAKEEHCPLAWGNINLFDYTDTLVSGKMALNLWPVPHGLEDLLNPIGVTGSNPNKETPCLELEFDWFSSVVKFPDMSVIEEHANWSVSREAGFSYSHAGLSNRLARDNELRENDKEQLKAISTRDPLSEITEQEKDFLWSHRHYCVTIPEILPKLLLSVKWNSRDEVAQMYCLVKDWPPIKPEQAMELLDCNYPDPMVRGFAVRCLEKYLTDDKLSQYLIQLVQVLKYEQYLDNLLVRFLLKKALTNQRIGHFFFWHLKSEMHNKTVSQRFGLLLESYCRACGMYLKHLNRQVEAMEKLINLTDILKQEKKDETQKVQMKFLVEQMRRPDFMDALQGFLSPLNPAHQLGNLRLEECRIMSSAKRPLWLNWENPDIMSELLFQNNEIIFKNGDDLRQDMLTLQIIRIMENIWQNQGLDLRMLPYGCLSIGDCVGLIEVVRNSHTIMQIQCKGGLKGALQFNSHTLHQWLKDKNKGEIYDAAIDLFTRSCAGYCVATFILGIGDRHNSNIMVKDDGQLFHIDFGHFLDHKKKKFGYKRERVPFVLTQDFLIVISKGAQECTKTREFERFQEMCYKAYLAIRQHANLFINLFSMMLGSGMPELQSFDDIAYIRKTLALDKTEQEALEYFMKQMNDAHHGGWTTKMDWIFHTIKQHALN
T2 sequence (P42338 whole entry, canonical isoform): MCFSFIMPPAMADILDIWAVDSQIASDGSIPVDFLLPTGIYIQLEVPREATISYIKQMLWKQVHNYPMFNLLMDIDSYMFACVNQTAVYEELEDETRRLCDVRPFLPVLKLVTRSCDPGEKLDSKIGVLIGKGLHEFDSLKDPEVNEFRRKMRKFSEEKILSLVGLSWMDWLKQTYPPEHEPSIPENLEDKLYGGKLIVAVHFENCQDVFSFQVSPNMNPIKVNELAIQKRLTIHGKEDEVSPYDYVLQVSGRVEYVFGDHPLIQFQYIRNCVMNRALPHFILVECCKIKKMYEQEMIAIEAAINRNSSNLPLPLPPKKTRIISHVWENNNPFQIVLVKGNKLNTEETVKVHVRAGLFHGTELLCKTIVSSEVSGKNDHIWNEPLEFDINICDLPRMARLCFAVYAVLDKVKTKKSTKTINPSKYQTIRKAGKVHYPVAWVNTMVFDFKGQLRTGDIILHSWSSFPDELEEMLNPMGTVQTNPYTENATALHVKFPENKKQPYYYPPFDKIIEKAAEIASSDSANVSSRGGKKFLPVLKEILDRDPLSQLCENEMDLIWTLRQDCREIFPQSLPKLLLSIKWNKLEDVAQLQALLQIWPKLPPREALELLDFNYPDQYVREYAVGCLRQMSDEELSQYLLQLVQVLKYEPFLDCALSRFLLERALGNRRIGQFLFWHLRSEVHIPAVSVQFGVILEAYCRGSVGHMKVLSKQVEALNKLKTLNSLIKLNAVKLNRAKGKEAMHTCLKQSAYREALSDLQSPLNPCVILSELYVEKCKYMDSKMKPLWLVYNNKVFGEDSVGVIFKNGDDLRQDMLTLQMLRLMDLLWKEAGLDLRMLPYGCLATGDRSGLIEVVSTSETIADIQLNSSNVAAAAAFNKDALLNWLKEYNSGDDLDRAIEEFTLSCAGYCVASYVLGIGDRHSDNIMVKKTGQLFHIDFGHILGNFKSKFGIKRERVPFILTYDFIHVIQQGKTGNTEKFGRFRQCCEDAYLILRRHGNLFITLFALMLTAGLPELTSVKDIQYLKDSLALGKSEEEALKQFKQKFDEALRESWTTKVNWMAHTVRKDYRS
Sequence of Phosphatidylinositol 4,5-bisphosphate 3-kinase catalytic subunit gamma isoform (P48736 whole entry, canonical isoform): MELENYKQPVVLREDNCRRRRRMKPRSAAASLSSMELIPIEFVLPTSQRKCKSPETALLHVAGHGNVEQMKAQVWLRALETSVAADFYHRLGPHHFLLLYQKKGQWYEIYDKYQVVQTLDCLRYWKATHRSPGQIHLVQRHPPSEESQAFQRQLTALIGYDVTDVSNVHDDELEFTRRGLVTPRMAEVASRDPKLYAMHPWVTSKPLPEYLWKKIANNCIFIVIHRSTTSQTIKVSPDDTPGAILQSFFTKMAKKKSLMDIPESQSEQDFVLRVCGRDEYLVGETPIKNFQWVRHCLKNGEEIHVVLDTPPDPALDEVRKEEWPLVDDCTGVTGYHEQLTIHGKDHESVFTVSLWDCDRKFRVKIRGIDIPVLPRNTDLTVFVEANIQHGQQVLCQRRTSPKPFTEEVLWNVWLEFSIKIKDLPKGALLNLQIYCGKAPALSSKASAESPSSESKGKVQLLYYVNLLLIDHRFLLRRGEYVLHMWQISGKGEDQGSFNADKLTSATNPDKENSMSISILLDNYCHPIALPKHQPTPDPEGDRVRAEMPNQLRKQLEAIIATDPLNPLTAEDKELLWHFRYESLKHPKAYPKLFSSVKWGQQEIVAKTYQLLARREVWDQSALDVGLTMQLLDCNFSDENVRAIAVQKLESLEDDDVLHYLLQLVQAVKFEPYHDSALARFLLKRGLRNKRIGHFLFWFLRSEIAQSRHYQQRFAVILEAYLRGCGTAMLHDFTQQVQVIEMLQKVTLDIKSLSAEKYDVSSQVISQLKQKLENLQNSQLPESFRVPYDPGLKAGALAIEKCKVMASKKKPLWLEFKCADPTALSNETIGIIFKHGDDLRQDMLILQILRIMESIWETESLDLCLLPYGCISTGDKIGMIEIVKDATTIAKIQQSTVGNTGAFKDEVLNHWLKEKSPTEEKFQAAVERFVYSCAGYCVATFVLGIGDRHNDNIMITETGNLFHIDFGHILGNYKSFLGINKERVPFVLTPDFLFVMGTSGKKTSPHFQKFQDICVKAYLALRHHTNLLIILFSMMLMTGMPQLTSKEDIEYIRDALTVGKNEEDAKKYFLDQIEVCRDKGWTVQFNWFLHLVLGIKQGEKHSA

SMILES	Papp at 20 min, 5 µM [1] [×10⁻⁶ cm/s]	IC50 [2] [nM]	IC50 [3] [nM]	solubility [4] [µM]	IC50 [5] [nM]	IC50 [6] [nM]	remaining at 20 min, 5 µM ([7]; liver microsomes) [%]	IC50 [8] [nM]	remaining at 20 min, 5 µM ([9]; liver microsomes) [%]	IC50 (Cytochrome P450 3A4) [nM]	remaining at 20 min, 5 µM ([7]; microsomes) [%]	remaining at 20 min, 5 µM ([9]; microsomes) [%]
Cc1cccc2c1CCN2C(=O)Cc1nc(N2CCOCC2)cc(=O)[nH]1	7.4	1780	138	3 (≈ 1.06 µg/mL)	24	5	60	3	32	–	–	–
O=C(Cc1nc(N2CCOCC2)cc(=O)[nH]1)N1CCc2c1cccc2C(F)(F)F	4.6	8400	390	12 (≈ 4.9 µg/mL)	98	10	13	9	24	40000	–	–
O=C(Cc1nc(N2CCOCC2)cc(=O)[nH]1)N1CCc2c(F)cccc21	–	6220	2450	–	122	–	–	–	–	–	9	19
O=C(Cc1nc(N2CCOCC2)cc(=O)[nH]1)N1CCc2c(-c3ccccn3)cccc21	4.2	8970	2380	110 (≈ 45.9 µg/mL)	106	98	40	66	36	11000	–	–
CN1CCN(c2cccc3c2CCN3C(=O)Cc2nc(N3CCOCC3)cc(=O)[nH]2)CC1	–	10000	960	1500 (≈ 656 µg/mL)	22	407	–	167	–	–	–	–
O=C(Cc1nc(N2CCOCC2)cc(=O)[nH]1)N1CCc2cc(F)ccc21	3	1590	426	31 (≈ 11.1 µg/mL)	17	4	14	7	18	40000	–	–
CC1Cc2ccccc2N1C(=O)Cc1nc(N2CCOCC2)cc(=O)[nH]1 (racemic)	–	9150	–	2750 (≈ 976 µg/mL)	36	4	–	6	–	–	–	–
Cn1c(CC(=O)N2CCc3ccccc32)nc(N2CCOCC2)cc1=O	8.3	–	4320	36 (≈ 12.8 µg/mL)	278	48	37	20	14	–	–	–
O=C(Cc1nc(N2CCOCC2)cc(=O)[nH]1)N1CCc2ccccc21	5.9	10000	460	12 (≈ 4.08 µg/mL)	28	4	21	15	12	40000	–	–
CC1CN(C(=O)Cc2nc(N3CCOCC3)cc(=O)[nH]2)c2ccccc21 (racemic)	7.5	10000	2260	3 (≈ 1.06 µg/mL)	87	22	40	13	47	40000	–	–
O=C(Cc1nc(N2CCOCC2)cc(=O)[nH]1)N1CCc2c(Br)cccc21	4.2	3980	85	2 (≈ 0.839 µg/mL)	55	6	22	1	24	40000	–	–
CN1CCN(Cc2cccc3c2CCN3C(=O)Cc2nc(N3CCOCC3)cc(=O)[nH]2)CC1	–	–	660	4420 (≈ 2000 µg/mL)	2	332	–	272	–	–	–	–
CC1(C)Cc2ccccc2N1C(=O)Cc1nc(N2CCOCC2)cc(=O)[nH]1	–	–	–	46 (≈ 16.9 µg/mL)	580	102	–	78	–	–	–	–
O=C(Cc1nc(N2CCOCC2)cc(=O)[nH]1)N1CCc2c(-c3ccccc3)cccc21	7.1	1530	217	–	18	8	25	24	40	40000	–	–
O=C(Cc1nc(N2CCOCC2)cc(=O)[nH]1)N1CCc2c(OC(F)(F)F)cccc21	4.1	7420	1000	12 (≈ 5.09 µg/mL)	34	33	44	54	48	40000	–	–
CC1(C)CN(C(=O)Cc2nc(N3CCOCC3)cc(=O)[nH]2)c2ccccc21	4	–	5420	46 (≈ 16.9 µg/mL)	278	17	87	28	83	40000	–	–
C[C@@H]1Cc2ccccc2N1C(=O)Cc1nc(N2CCOCC2)cc(=O)[nH]1	5.1	3320	–	2500 (≈ 885 µg/mL)	6	6	52	12	43	40000	–	–
COc1cccc2c1CCN2C(=O)Cc1nc(N2CCOCC2)cc(=O)[nH]1	0.6	–	2420	5 (≈ 1.85 µg/mL)	648	41	70	60	0	40000	–	–
Cn1c(Cc2nc(N3CCOCC3)cc(=O)[nH]2)nc2ccccc21	–	10000	–	–	–	–	–	–	–	–	–	–
